#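 Where inhibition never reached the appropriate level, the endpoint shown equals the highest concentration tested. Otherwise, values were interpolated linearly from a five-concentration, 48-hour dose response in 96-well plates. GI50 marks 50% less growth.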 Active and inactive are the calls of the source. No stated cut-off is given here; in the data, active = GI50 up to about 1.1 µM and inactive = higher.
# Tests used:
# Assay in all cases: inhibition of tumour cell growth, NCI panel, 48 h
# MDA-N = test system: MDA-N
# M19-MEL = test system: M19-MEL
# KM-20L2 = test system: KM-20L2
# SNB-78 = test system: SNB-78
# DMS-114 = test system: DMS-114
# DMS-273 = test system: DMS-273
# DLD-1 = test system: DLD-1
# XF498 = test system: XF498
compound,measurement,setting,value
S=C(S)NCCN1CCNCC1,GI50,MDA-N,37.2 µM (inactive)
Cc1cc(C)c(N[S+]([O-])c2cccc(Cl)c2)c(C)c1 (configuration not stated),GI50,MDA-N,> 100 µM (inactive)
N=C(N)NC(=N)Nc1ccc(S(N)(=O)=O)cc1,GI50,MDA-N,> 100 µM (inactive)
CN(/N=C/c1ccnc2ccccc12)c1ccc([N+](=O)[O-])cc1[N+](=O)[O-],GI50,M19-MEL,> 100 µM (inactive)
same,GI50,KM-20L2,> 100 µM (inactive)
same,GI50,SNB-78,42.3 µM (inactive)
same,GI50,DMS-114,> 100 µM (inactive)
same,GI50,DMS-273,> 100 µM (inactive)
same,GI50,DLD-1,> 100 µM (inactive)
same,GI50,XF498,> 100 µM (inactive)
CCN(CC)c1ccc(C2Nc3ccc4ccccc4c3C3=C2C(=O)CCC3)cc1 (configuration not stated),GI50,MDA-N,> 100 µM (inactive)
Nc1ccc(C(=O)NN2C(=O)C(Cl)C2c2ccccc2O)cc1 (configuration not stated),GI50,M19-MEL,49.1 µM (inactive)
same,GI50,KM-20L2,70 µM (inactive)
same,GI50,SNB-78,> 100 µM (inactive)
same,GI50,DMS-114,21.1 µM (inactive)
same,GI50,DMS-273,55.2 µM (inactive)
same,GI50,DLD-1,54.3 µM (inactive)
same,GI50,XF498,37.3 µM (inactive)
CCOC(=O)c1ccc(-c2cccs2)[nH]1,GI50,MDA-N,66.8 µM (inactive)
COc1ccc2nc3cc([N+](=O)[O-])ccc3c(NNc3ccccc3)c2c1,GI50,MDA-N,29.5 µM (inactive)
Cc1cc2c(cc1-c1cc3c(cc1C)C(C(C)C)=C(O)C(=O)/C3=C\Nc1c3ccccc3nc3ccccc13)/C(=C/Nc1c3ccccc3nc3ccccc13)C(=O)C(O)=C2C(C)C,GI50,MDA-N,4.06 µM (inactive)
COc1cc(OC2OC(COC(=O)c3cc(O)c(O)c(O)c3)C(O)C(O)C2O)ccc1O (configuration not stated),GI50,MDA-N,30.5 µM (inactive)
CC1=CC(=O)/C(=C/NC(=S)NCCc2ccccc2)C(=O)O1,GI50,MDA-N,> 100 µM (inactive)
CC1=C2O[C@]3(O)C=C2C(=C(O)C1=O)[C@@H]1O[C@H](CC[C@H](C)/C=C(\C)C[C@@H](C)C[C@@H]3C)[C@H](C)[C@H](O)[C@H]1C [KENDOMYCIN],GI50,MDA-N,0.166 µM (active)
CC(=O)/C=C/c1ccc(C)cc1,GI50,M19-MEL,> 100 µM (inactive)
same,GI50,KM-20L2,> 100 µM (inactive)
same,GI50,SNB-78,> 100 µM (inactive)
same,GI50,DMS-114,> 100 µM (inactive)
same,GI50,DMS-273,> 100 µM (inactive)
same,GI50,DLD-1,> 100 µM (inactive)
CCOc1ccc(/N=N/c2ccc3oc(=O)c(C(=O)Nc4ccc(OC)cc4)cc3c2)cc1,GI50,M19-MEL,26.4 µM (inactive)
same,GI50,KM-20L2,32.2 µM (inactive)
same,GI50,SNB-78,21.3 µM (inactive)
same,GI50,DMS-273,25.8 µM (inactive)
same,GI50,DLD-1,8.32 µM (inactive)
COC(=O)/C(C#N)=C1\NN=NN1CCCN1CCOCC1,GI50,M19-MEL,> 100 µM (inactive)
same,GI50,SNB-78,> 100 µM (inactive)
same,GI50,DMS-114,> 100 µM (inactive)
same,GI50,DMS-273,> 100 µM (inactive)
same,GI50,DLD-1,> 100 µM (inactive)
CCCCCC/C=C\CCCCCCCCCC1=CC(=O)C=C(OC)C1=O [IRISQUINONE A],GI50,MDA-N,6.5 µM (inactive)
O=C(C(Cl)=C(N1CCCCC1)N1CCCCC1)C(Cl)Cl,GI50,MDA-N,> 100 µM (inactive)
C=C(C)C12CC(COC(=O)c3ccccc3)C34OC5(OC1C3C1OC1(CO)C(O)C1(O)C(OC(=O)c3ccccc3)C(C)C(C(C)CCCCCCC5O)C14)O2 (configuration not stated),GI50,MDA-N,25.9 µM (inactive)
OC1C2[C@@H](O)CCCN2C[C@@H](O)[C@H]1O (some centres not stated),GI50,MDA-N,> 100 µM (inactive)
Cc1ccc(C2(c3ccc(F)cc3)OC(=O)c3ccccc32)c(O)c1 (configuration not stated),GI50,MDA-N,12 µM (inactive)
CNC(=S)NN=C1NCCCCN1,GI50,MDA-N,> 100 µM (inactive)
C[C@@]1(c2ccccc2)O[C@@H]2C[C@H]3[C@@H]4CCC5=CC(=O)C=C[C@]5(C)[C@@]4(F)[C@@H](O)C[C@]3(C)[C@]2(C(=O)CO)O1 [AMCINAFIDE],GI50,MDA-N,17 µM (inactive)
O=C(Nc1sccc1S(=O)(=O)c1ccc(Cl)cc1)c1ccc(Cl)cc1,GI50,MDA-N,> 100 µM (inactive)
COc1cc2c3c(cc(Cl)nc3c1OC)C(O)(CC(C)=O)C(=O)N2 (configuration not stated),GI50,MDA-N,17.3 µM (inactive)
NC1=CN(CCCO)C2=N/C(=C\c3ccco3)C(=O)N12,GI50,MDA-N,> 100 µM (inactive)
O=C(O)CSc1nnc(-c2ccccc2)[nH]1,GI50,M19-MEL,> 100 µM (inactive)
same,GI50,KM-20L2,> 100 µM (inactive)
same,GI50,DMS-273,> 100 µM (inactive)
same,GI50,DLD-1,> 100 µM (inactive)
same,GI50,XF498,> 100 µM (inactive)
CC(=O)c1c(O)c(C)c(O)c(Cc2c(O)c3c(c(C(=O)/C=C/c4ccccc4)c2O)OC(C)(C)C=C3)c1O [ROTTLERIN],GI50,MDA-N,3.14 µM (inactive)
CN(C(=O)C1CC1)C1C2CN3CCC(O2)C13 (configuration not stated),GI50,M19-MEL,> 100 µM (inactive)
same,GI50,KM-20L2,> 100 µM (inactive)
same,GI50,SNB-78,94.4 µM (inactive)
same,GI50,DMS-114,> 100 µM (inactive)
same,GI50,DMS-273,> 100 µM (inactive)
same,GI50,DLD-1,> 100 µM (inactive)
COP(=O)(OC)/C(=C/c1c[nH]c2ccccc12)C(=O)O,GI50,MDA-N,> 100 µM (inactive)
Cc1nc2c(o1)C(=O)c1ccccc1/C2=N/c1ccc(N2CCOCC2)cc1,GI50,MDA-N,1.93 µM (inactive)
CCOC(=O)c1cc(C2=C(S)N(CC(C)CC)CC2)c(C(=O)CC)[nH]1 (configuration not stated),GI50,MDA-N,14.3 µM (inactive)
CC1(C)CC(=O)c2c(nc3ccc4ccccc4c3c2-c2ccc(NC(=O)CCCCC(=O)Nc3ccc(-c4c5c(nc6ccc7ccccc7c46)CC(C)(C)CC5=O)cc3)cc2)C1,GI50,MDA-N,> 100 µM (inactive)
Cc1ccc(Nc2nc(C)c(C(=O)CC(=O)C(=O)Nc3ccc(Cl)cc3)s2)cc1,GI50,MDA-N,> 100 µM (inactive)
COc1nc(NC2OCC(OC(C)=O)C(OC(C)=O)C2OC(C)=O)c(/N=C\C=N\c2c(NC3OCC(OC(C)=O)C(OC(C)=O)C3OC(C)=O)nc(OC)n(C)c2=O)c(=O)n1C (configuration not stated),GI50,M19-MEL,> 100 µM (inactive)
same,GI50,KM-20L2,> 100 µM (inactive)
same,GI50,SNB-78,> 100 µM (inactive)
same,GI50,DMS-273,> 100 µM (inactive)
same,GI50,DLD-1,> 100 µM (inactive)
same,GI50,XF498,17.9 µM (inactive)
C=C1C(=O)O[C@@H]2C[C@@H]3[C@]4(CC[C@]5(C)[C@@H]([C@H](C)CC/C=C(\C)C=O)CC[C@@]35C)C[C@]4(CCC(=O)OC)[C@H]12,GI50,MDA-N,1.61 µM (inactive)
COc1cc(/C=N/c2nc3cc4sc(/N=C/c5cc(OC)c(OC)c(OC)c5)nc4cc3s2)cc(OC)c1OC,GI50,MDA-N,27 µM (inactive)
COc1ccc(C(C)c2cc3c(cc2OC)OCO3)cc1 (configuration not stated),GI50,M19-MEL,0.395 µM (active)
same,GI50,KM-20L2,0.225 µM (active)
same,GI50,MDA-N,0.019 µM (active)
same,GI50,SNB-78,0.612 µM (active)
same,GI50,DMS-114,0.339 µM (active)
same,GI50,DMS-273,0.106 µM (active)
same,GI50,DLD-1,0.225 µM (active)
Cc1cc(C)nc(NC(=S)Nc2ccccc2Cl)c1,GI50,MDA-N,> 100 µM (inactive)
CC(C)(C)c1cc(C(C)(C)C)c(SS(=O)(=O)O)c(O)c1O,GI50,MDA-N,30.1 µM (inactive)
CCOC(=O)C1(Cc2ccccc2)Cc2cc3c(cc2C1)CCC3,GI50,MDA-N,31.1 µM (inactive)
Cl.O=C(O)c1cccnc1,GI50,MDA-N,> 100 µM (inactive)
OC1CCN2Cc3ccccc3N=C12 (configuration not stated),GI50,MDA-N,> 100 µM (inactive)
CC(C)NCC(O)c1ccc(O)c2ncccc12 (configuration not stated),GI50,MDA-N,91.2 µM (inactive)
CSc1nc(-c2ccccc2)nc(C(C#N)C#N)n1,GI50,MDA-N,> 100 µM (inactive)
Ic1cccc(/C=C/CN2CCN(CCOC(c3ccccc3)c3ccccc3)CC2)c1,GI50,MDA-N,17.9 µM (inactive)
CC(C)=CCCc1c(C)ccc2c1C(=O)C(=O)C(C(C)C)=C2,GI50,M19-MEL,3.87 µM (inactive)
same,GI50,KM-20L2,> 22 µM (inactive)
same,GI50,DMS-114,4.2 µM (inactive)
same,GI50,DMS-273,3.97 µM (inactive)
same,GI50,DLD-1,3.48 µM (inactive)
same,GI50,XF498,3.77 µM (inactive)
CC(=O)NC1(C)CCC(C(C)(C)NC(C)=O)CC1 (configuration not stated),GI50,MDA-N,> 100 µM (inactive)
NS(=O)(=O)c1cccc(NC(=S)NC(=O)Nc2ccc(Cl)c(Cl)c2)c1,GI50,MDA-N,18.6 µM (inactive)
CC1(C)OC2C(O)C(CO)OC2(C(F)F)O1 (configuration not stated),GI50,MDA-N,> 100 µM (inactive)
CC(=O)Nc1ccc(C(=O)NN2C(=O)C(Cl)C2c2ccc(Cl)cc2)cc1 (configuration not stated),GI50,M19-MEL,> 100 µM (inactive)
same,GI50,DLD-1,> 100 µM (inactive)
C[C@H](CCC(=O)O)[C@H]1CC[C@H]2[C@@H]3[C@H](O)C[C@@H]4C[C@H](O)CC[C@]4(C)[C@H]3CC[C@]12C [CHENODIOL],GI50,MDA-N,37.7 µM (inactive)

# — ChEMBL document CHEMBL1201862, “PubChem BioAssay data set” (2004)
